Reference: ChEMBL document CHEMBL1201862, “PubChem BioAssay data set” (2004)
Activity calls are given as the source filed them.

Key:
[1] = molecular target: Tyrosine-protein phosphatase non-receptor type 5 (Homo sapiens, UniProt P54829); assay: PTPN5 enzyme inhibition – biochemical, fluorescence intensity, uHTS hits, confirmation (AID 602372); format: functional; details: read-out: IC50_Mean
[2] = molecular target: Tyrosine-protein phosphatase non-receptor type 11 (Homo sapiens, UniProt Q06124); assay: PTPN11 enzyme inhibitors – biochemical, selectivity assay for STEP inhibitor project, dose response (AID 602367); format: functional; details: read-out: IC50_Mean
Chain of Tyrosine-protein phosphatase non-receptor type 11 (Q06124 whole entry): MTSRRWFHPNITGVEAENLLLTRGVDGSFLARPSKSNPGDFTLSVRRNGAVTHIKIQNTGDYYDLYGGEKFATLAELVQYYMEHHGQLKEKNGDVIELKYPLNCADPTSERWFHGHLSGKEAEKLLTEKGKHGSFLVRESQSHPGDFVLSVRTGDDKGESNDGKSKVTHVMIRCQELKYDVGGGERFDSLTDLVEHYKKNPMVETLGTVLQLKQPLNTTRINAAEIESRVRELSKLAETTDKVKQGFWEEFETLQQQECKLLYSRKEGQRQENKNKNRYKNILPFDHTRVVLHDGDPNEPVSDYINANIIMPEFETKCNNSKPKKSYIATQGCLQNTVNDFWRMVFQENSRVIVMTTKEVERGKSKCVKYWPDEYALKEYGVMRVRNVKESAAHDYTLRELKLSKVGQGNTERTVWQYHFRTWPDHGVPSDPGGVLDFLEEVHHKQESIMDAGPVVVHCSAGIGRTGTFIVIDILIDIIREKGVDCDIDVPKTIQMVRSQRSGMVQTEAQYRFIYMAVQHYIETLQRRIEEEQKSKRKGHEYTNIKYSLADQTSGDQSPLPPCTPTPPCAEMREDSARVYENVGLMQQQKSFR

[3] = molecular target: Dual specificity protein phosphatase 3 (Homo sapiens, UniProt P51452); assay: VHR phosphatase inhibition, dose response, selectivity assay for STEP inhibitor project, biochemical (AID 602374); format: functional; details: read-out: IC50_Mean
Chain of Dual specificity protein phosphatase 3 (P51452 whole entry): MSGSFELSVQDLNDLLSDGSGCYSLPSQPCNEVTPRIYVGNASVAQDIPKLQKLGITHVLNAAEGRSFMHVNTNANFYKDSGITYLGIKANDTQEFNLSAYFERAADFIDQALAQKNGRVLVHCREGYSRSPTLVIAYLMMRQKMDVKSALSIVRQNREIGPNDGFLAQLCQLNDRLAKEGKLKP

[4] = molecular target: T1, Apoptotic protease-activating factor 1 (Homo sapiens, UniProt O14727); format: functional
T1 sequence (O14727 whole entry): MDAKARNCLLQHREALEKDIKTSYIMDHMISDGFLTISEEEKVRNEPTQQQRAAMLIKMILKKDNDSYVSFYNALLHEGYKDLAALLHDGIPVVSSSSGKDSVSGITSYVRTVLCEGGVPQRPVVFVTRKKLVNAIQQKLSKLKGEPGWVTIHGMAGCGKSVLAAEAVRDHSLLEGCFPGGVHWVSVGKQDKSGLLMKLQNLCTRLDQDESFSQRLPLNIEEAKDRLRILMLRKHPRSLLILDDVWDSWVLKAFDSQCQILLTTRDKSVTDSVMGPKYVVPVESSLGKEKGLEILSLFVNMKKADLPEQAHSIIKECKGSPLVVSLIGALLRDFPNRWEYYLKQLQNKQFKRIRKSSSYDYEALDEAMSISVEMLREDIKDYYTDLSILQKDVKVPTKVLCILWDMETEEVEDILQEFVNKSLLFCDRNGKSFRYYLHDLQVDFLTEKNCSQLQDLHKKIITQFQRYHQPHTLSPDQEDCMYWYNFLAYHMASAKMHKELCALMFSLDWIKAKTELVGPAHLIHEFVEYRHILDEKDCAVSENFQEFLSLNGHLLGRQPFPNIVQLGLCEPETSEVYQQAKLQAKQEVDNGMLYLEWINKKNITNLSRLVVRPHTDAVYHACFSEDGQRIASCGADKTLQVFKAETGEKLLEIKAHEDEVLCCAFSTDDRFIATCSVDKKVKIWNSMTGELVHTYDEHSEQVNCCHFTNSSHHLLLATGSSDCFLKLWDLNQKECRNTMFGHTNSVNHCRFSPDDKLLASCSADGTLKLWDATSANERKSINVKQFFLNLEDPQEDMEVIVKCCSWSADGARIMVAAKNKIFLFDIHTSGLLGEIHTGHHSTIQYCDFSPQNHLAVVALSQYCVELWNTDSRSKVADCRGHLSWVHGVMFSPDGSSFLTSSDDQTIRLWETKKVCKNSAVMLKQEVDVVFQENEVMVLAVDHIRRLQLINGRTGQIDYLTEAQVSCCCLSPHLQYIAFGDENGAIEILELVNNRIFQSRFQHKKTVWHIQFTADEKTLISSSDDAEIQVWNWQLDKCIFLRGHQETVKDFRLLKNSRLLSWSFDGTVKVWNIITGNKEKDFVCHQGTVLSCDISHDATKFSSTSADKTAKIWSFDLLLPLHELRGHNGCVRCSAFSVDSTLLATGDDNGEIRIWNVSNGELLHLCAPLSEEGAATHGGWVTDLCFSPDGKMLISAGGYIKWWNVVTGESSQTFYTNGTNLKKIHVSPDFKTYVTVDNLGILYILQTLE

[5] = viability of uninfected HEp-2 cells – cell-based, HTS, cytotoxicity control for RSV inhibitor project, dose response (AID 2410); format: functional; details: human respiratory syncytial virus
[6] = molecular target: Potassium voltage-gated channel subfamily KQT member 2 (Rattus norvegicus, UniProt O88943); assay: blockers of KCNQ2 channel current – cell-based, automated electrophysiology, set II, rat KCNQ2, dose response (AID 588637); format: functional
Chain of Potassium voltage-gated channel subfamily KQT member 2 (O88943 whole entry): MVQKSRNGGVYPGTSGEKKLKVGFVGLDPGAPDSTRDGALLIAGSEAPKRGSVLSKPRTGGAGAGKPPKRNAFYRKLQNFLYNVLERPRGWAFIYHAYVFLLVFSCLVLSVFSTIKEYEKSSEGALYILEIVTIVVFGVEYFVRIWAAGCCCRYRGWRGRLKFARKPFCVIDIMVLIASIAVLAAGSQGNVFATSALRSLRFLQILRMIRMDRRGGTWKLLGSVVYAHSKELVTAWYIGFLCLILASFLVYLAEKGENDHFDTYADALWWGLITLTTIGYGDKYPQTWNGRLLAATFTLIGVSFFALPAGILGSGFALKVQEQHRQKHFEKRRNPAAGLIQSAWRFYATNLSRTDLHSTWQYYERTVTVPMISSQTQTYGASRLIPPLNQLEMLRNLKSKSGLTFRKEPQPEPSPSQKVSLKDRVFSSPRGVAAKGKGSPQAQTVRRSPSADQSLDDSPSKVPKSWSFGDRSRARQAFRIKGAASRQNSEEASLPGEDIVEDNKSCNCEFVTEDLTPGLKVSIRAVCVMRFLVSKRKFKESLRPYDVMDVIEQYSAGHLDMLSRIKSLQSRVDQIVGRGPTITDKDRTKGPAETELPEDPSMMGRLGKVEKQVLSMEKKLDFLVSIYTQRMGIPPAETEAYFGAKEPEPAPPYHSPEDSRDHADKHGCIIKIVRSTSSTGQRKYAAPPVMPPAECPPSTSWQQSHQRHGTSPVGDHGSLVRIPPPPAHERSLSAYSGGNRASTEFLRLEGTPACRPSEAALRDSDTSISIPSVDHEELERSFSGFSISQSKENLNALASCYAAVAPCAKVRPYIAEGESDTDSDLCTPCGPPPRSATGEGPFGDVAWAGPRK

HEK293 = assay: EBV LMP1 TES2 canonical NF-kB signalling blockers – cell-based, HEK293, luciferase, cherry-pick, dose response (AID 588343); format: functional; details: Homo sapiens
[7] = molecular target: T2, Latent membrane protein 1 (Human herpesvirus 4 (strain B95-8), UniProt P03230); assay: LMP1 TES1 pathway selectivity over dsRED control – imaging, HEK293T, dual-color eGFP/dsRED, cherry-picks, selectivity assay for LMP1 NF-kB inhibitor project, dose response (AID 588398); format: functional, cell-based
T2 sequence (P03230 whole entry): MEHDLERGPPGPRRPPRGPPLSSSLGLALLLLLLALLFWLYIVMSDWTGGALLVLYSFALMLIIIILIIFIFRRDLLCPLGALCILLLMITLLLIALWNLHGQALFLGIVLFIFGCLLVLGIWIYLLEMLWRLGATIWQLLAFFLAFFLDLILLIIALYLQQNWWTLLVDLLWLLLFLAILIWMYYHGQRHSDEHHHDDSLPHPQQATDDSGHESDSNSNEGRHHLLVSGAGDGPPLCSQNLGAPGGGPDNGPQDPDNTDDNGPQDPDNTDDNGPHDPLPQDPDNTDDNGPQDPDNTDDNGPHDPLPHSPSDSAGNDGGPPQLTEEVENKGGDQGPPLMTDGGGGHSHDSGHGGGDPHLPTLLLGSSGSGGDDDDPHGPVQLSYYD

Streptokinase A = molecular target: T3, Streptokinase A (Streptococcus pyogenes serotype M1, UniProt P10520); assay: viability-normalized secreted streptokinase activity reduction – plasminogen activation absorbance, OD405, dose response (AID 1914); format: functional, Streptococcus pyogenes M1 GAS;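 also: secreted streptokinase activity via plasminogen activation per viability signal from cell pellet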
T3 sequence (P10520 whole entry): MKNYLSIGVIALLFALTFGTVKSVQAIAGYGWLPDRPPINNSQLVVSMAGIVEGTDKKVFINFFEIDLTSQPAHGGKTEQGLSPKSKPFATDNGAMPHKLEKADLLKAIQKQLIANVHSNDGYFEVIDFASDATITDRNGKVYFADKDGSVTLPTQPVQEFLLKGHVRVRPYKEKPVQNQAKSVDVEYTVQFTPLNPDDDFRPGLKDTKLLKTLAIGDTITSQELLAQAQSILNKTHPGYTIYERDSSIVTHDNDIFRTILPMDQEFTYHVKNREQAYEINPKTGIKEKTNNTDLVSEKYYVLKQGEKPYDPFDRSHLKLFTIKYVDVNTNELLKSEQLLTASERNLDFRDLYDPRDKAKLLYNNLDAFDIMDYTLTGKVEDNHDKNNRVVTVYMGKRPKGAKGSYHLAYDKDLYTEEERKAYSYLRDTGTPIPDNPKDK

Streptococcus = assay: GAS UMAA2166 growth inhibition – luminescence, BacTiterGlo, counter-screen for streptokinase expression inhibitor project, dose response (AID 1915); format: functional, organism-based;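 also: potency for reduction of bacterial viability or growth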
[8] = test system: Streptococcus sp. 'group A'; assay: Streptococcus pyogenes SK(-)GAS viability under kanamycin – luminescence, BacTiterGlo, confirmation, counter-screen for streptokinase expression inhibitor project, dose response (AID 1900); format: functional, organism-based
Cysteine protease ATG4B = molecular target: T4, Cysteine protease ATG4B (Homo sapiens, UniProt Q9Y4P1); format: functional;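 also: Fluorescence-based dose-response confirmation assay measuring inhibition of ATG4B activity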
T4 sequence (Q9Y4P1 whole entry): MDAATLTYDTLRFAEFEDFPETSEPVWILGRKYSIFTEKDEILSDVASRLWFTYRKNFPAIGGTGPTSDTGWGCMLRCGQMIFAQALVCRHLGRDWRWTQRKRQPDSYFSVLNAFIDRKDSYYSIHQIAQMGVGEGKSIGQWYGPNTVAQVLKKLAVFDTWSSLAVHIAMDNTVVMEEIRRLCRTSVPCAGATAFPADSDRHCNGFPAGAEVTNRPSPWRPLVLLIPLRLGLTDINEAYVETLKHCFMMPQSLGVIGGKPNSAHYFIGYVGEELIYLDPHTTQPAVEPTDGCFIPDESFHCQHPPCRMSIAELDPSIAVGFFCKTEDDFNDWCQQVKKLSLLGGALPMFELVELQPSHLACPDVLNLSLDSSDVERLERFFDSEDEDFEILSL

[9] = molecular target: 72 kDa type IV collagenase (Homo sapiens, UniProt P08253); assay: Dose Response validation of uHTS RPN11 inhibitor hits using a MMP-2 Fluorescence assay.; format: functional
Chain of 72 kDa type IV collagenase (P08253 whole entry): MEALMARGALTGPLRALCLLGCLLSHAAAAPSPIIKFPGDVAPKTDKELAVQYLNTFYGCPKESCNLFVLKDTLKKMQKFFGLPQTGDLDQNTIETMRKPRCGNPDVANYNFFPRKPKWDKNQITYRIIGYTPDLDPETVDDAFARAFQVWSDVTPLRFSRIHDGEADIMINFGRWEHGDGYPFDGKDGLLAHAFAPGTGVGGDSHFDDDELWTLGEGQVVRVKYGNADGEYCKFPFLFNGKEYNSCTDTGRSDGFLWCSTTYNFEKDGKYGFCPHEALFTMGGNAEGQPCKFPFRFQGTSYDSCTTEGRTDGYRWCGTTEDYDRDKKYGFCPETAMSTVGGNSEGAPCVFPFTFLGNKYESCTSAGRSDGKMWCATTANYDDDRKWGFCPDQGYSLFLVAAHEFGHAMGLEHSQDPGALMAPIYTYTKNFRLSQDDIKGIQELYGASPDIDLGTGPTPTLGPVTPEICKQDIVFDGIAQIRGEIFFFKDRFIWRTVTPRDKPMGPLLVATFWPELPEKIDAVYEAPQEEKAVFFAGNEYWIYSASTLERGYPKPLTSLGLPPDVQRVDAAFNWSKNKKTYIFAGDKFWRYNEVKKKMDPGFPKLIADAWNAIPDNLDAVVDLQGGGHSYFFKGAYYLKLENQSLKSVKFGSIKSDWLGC

Phospholipase A2 = Phospholipase A2 (Homo sapiens, UniProt P04054); format: functional;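 also: confirmatory dose-response counterscreen on phospholipase A2, testing hits that came from an ultra-high-throughput screen for ATG4B inhibitors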
Chain of Phospholipase A2 (P04054 whole entry): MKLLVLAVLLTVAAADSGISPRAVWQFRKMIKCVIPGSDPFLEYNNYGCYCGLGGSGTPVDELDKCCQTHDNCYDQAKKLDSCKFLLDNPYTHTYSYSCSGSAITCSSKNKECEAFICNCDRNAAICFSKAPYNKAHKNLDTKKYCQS

[10] = NIH-3T3 fibroblast cytotoxicity, dose response, cytotoxicity control, cell-based, fluorescence, Alamar Blue, secondary assay (AID 2327); format: functional;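 also: NIH-3T3 mouse fibroblasts cultured with fluconazole at 8 µg/mL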
[11] = fluconazole-exposed Candida albicans growth modulators – fluorescence, retest, confirmation (AID 2467); format: functional, cell-based
Prothrombin = Prothrombin (Bos taurus, UniProt P00735); assay: thrombin protease inhibitors – biochemical, fluorescence polarization, uHTS hits, dose response (AID 602369); format: functional
[12] = molecular target: 26S proteasome non-ATPase regulatory subunit 14 (Homo sapiens, UniProt O00487); assay: inhibition of proteasome subunit RPN11 – biochemical, fluorescence polarization, uHTS hits, confirmation (AID 602368); format: functional
Chain of 26S proteasome non-ATPase regulatory subunit 14 (O00487 whole entry): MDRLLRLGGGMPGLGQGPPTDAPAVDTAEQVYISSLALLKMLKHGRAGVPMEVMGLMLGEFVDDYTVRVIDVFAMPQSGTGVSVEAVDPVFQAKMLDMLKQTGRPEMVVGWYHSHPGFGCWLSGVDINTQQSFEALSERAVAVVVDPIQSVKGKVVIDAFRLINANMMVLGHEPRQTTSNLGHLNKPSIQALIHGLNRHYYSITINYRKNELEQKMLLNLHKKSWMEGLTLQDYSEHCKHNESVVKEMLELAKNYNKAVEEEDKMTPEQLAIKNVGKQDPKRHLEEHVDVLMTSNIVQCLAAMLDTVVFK

Chain of Tyrosine-protein phosphatase non-receptor type 5 (P54829 whole entry): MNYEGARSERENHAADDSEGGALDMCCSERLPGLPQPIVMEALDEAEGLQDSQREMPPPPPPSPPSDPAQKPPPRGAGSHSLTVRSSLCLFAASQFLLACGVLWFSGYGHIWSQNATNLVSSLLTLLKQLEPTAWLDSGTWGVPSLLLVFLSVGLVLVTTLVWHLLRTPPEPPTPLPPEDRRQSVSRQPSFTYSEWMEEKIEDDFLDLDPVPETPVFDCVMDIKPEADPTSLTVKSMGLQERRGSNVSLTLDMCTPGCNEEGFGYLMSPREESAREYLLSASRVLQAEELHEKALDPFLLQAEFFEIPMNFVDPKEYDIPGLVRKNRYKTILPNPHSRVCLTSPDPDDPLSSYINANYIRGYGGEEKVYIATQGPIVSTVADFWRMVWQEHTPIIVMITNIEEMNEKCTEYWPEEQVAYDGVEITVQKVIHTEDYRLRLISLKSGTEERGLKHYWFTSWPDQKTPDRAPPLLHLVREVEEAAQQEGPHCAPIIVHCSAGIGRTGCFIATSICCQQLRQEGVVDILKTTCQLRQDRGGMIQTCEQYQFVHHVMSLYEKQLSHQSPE

COc1cc(NC(=S)N2CCN(C)CC2)c(OC)cc1Cl
IC50 [1]: > 80 µM (inactive) | IC50 [2]: 7.71 µM (active) | IC50 [3]: 4 µM (active)

COc1ccc(-n2nc3ccc(N)cc3n2)cc1Cl
IC50 [4]: > 100 µM (inactive) | CC50 [5]: 47.1 µM (active)

COc1ccc(CCN(C)C(=O)c2cc(-c3ccc(C)cc3)nc3ccccc23)cc1OC
IC50 [6]: 0.59 µM (active)

CC(=NNC(=S)N1CCCC1)c1ccccn1
AC50 (HEK293): 0.0151 µM (active) | AC50 [7]: 0.444 µM (active)

O=C(CCNS(=O)(=O)c1ccccc1)NCCSc1ccc(Br)cc1
IC50 [4]: > 100 µM (inactive)

C/C(=N\Nc1nc(N2CCCCCC2)nc(N2CCCCCC2)n1)c1ccccc1
IC50 [6]: 1.62 µM (active) | EC50 (Streptokinase A): 5.5 µM (active) | EC50 (Streptococcus): 9.52 µM (active) | EC50 [8]: 7.16 µM (active)

COc1cc(OC)cc(-c2nnc(Nc3nc4c(F)cccc4s3)o2)c1
IC50 (Cysteine protease ATG4B): 5.68 µM (active) | IC50 [9]: > 100 µM (inactive) | IC50 (Phospholipase A2): > 80 µM (inactive) | EC50 [10]: > 150 µM (inconclusive) | EC50 [11]: > 38 µM (not active) | IC50 (Prothrombin): 62.8 µM (active) | IC50 [12]: 30.1 µM (active)
